What all share (format): cell-based
The subject of test [1] is C. albicans ATCC90028. Put plainly: Antifungal activity test, MIC by broth microdilution (CLSI M27-A3). Conditions: C. albicans ATCC90028, 35° C., 24-48 hours. The method, then: (§1) The Minimum Inhibitory Concentration (MIC) values of the present compound against yeast and filamentous fungi were determined by broth microdilution assay according to the Clinical Laboratory Standards Institute (CLSI) guidelines outlined in documents M27-A3 and M38-A2. The medium used in the assay consisted of RPMI1640 (with glutamine, without bicarbonate) with 2% glucose and 0.165 mol/L morpholinepropanesulfonic acid (MOPS) with pH adjusted to 7.0 using 1 mol/L sodium hydroxide. The present compound was dissolved in dimethyl sulfoxide (DMSO). A series of two-fold dilutions were prepared in DMSO, and then 2 μL of the diluted compound was added to each well in 96-well sterile plates. Each inoculum was prepared by diluting a suspension of Candida spp. or a conidia suspension of Aspergillus spp. suspended in sterile saline solution, and then 200 μL was added to each well to a predetermined concentration using RPMI/MOPS (final concentration for each solution: approximately 1×10^3 cells/mL and approximately 1×10^4 CFU/mL). Plates of Candida spp. and Aspergillus spp. were incubated at 35° C. for 24-48 hours. The MIC was defined as the lowest concentration giving 100% inhibition compared to the growth control.
For orientation: Dilution methods test growth across graded concentrations, often in twofold steps.

Test [2] has as its system A. flavus ATCC204304. Put plainly: Antifungal activity test, MIC by broth microdilution (CLSI M38-A2). Conditions: A. flavus ATCC204304, 35° C., 24-48 hours. The method, then: as §1
For test [3], the system named is A. fumigatus ATCC204305. The test is described as above. Conditions: A. fumigatus ATCC204305, 35° C., 24-48 hours. The method, then:
as §1

Test [4] concerns red blood cells (5% RBC suspension). Put plainly: Test Example 2-1: in vitro hemolytic activity test (upper limit 50, 80, 100 or 200 μmol/L). The settings on record: Erythrocyte, 1 h; hemolysis method 80 (upper concentration 80 μmol/L); 5% RBC suspension, 37° C., one hour; read-out: hemolysis IC50. In a few lines:
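A 5% suspension of washed red cells in Earle's medium was exposed to doubling dilutions of compound from DMSO, with maxima of 50, 80, 100 or 200 μmol/L final, for 1 h at 37 °C, 5% CO2. Supernatant absorbance at 540 nm was normalised to water-lysed cells. IC50 is the concentration giving 50% hemolysis; ">" values exceed the top concentration.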

[5] abbreviates: Candida albicans, broth microdilution, 100% inhibition, read-out: MIC.
Where [6] appears, read: Aspergillus flavus, broth microdilution, 100% inhibition, read-out: MIC.
[7] abbreviates: Aspergillus fumigatus, broth microdilution, 100% inhibition, read-out: MIC.
The mark [8] stands for this setting: broth microdilution, 100% inhibition.
Setting [9] is: lowest concentration giving 100% inhibition.

In brackets after ≈: the same amount, converted by molar mass. Like-named read-outs stand apart in the source and are kept apart here.

One may read the MIC as the lowest concentration that inhibits growth of the organism. In general, IC50 refers to the point on the concentration scale where inhibition reaches its midpoint. For the compound `C[C@@H]1[C@H](O)[C@@H](C)/C=C/C=C/C=C/C=C/C=C/C=C/C=C/[C@H](O[C@@H]2O[C@H](C)[C@@H](O)[C@H](N)[C@@H]2O)C[C@@H]2O[C@](O)(C[C@@H](O)C[C@@H](O)[C@H](O)CC[C@@H](O)C[C@@H](O)CC(=O)O[C@H]1C)C[C@H](O)[C@H]2NC(=O)NC(CO)CO` [I-40], the values for the MIC in test [1] (setting [5]), in test [2] (setting [6]) and in test [3] (setting [7]) were 0.125 µg/mL (≈ 0.123 µM), 0.5 µg/mL (≈ 0.494 µM) and 0.25 µg/mL (≈ 0.247 µM), respectively. The IC50 in test [4] was above 80 µM.

As for `C[C@@H]1[C@H](O)[C@@H](C)/C=C/C=C/C=C/C=C/C=C/C=C/C=C/[C@H](O[C@@H]2O[C@H](C)[C@@H](O)[C@H](N)[C@@H]2O)C[C@@H]2O[C@](O)(C[C@@H](O)C[C@@H](O)[C@H](O)CC[C@@H](O)C[C@@H](O)CC(=O)O[C@H]1C)C[C@H](O)[C@H]2NC(=O)N(O)CCO` [I-274], the MIC in test [1] (setting [8]), in test [2] (setting [8]) and in test [3] (setting [8]) was 0.5 µg/mL (≈ 0.501 µM) throughout.

With `C[C@@H]1[C@H](O)[C@@H](C)/C=C/C=C/C=C/C=C/C=C/C=C/C=C/[C@H](O[C@@H]2O[C@H](C)[C@@H](O)[C@H](N)[C@@H]2O)C[C@@H]2O[C@](O)(C[C@@H](O)C[C@@H](O)[C@H](O)CC[C@@H](O)C[C@@H](O)CC(=O)O[C@H]1C)C[C@H](O)[C@H]2NC(=O)N(O)C[C@H](O)CO` [I-275], the figures for the MIC in test [1] (setting [8]), in test [2] (setting [8]) and in test [3] (setting [8]) were 0.5 µg/mL (≈ 0.486 µM), 1 µg/mL (≈ 0.973 µM) and 0.5 µg/mL (≈ 0.486 µM), respectively.

`C[C@@H]1[C@H](O)[C@@H](C)/C=C/C=C/C=C/C=C/C=C/C=C/C=C/[C@H](O[C@@H]2O[C@H](C)[C@@H](O)[C@H](N)[C@@H]2O)C[C@@H]2O[C@](O)(C[C@@H](O)C[C@@H](O)[C@H](O)CC[C@@H](O)C[C@@H](O)CC(=O)O[C@H]1C)C[C@H](O)[C@H]2NC(=O)N(O)CC(=O)O` [I-276]: the MIC in test [1] (setting [8]), in test [2] (setting [8]) and in test [3] (setting [8]) was 0.5 µg/mL (≈ 0.494 µM) each time.

For `C[C@@H]1[C@H](O)[C@@H](C)/C=C/C=C/C=C/C=C/C=C/C=C/C=C/[C@H](O[C@@H]2O[C@H](C)[C@@H](O)[C@H](N)[C@@H]2O)C[C@@H]2O[C@](O)(C[C@@H](O)C[C@@H](O)[C@H](O)CC[C@@H](O)C[C@@H](O)CC(=O)O[C@H]1C)C[C@H](O)[C@H]2NC(=O)NOCC(=O)O` [I-278], the minimum inhibitory concentration (MIC) in test [1] (setting [5]), in test [2] (setting [6]) and in test [3] (setting [7]) was 0.5 µg/mL (≈ 0.494 µM) throughout.

As to `C[C@@H]1[C@H](O)[C@@H](C)/C=C/C=C/C=C/C=C/C=C/C=C/C=C/[C@H](O[C@@H]2O[C@H](C)[C@@H](O)[C@H](N)[C@@H]2O)C[C@@H]2O[C@](O)(C[C@@H](O)C[C@@H](O)[C@H](O)CC[C@@H](O)C[C@@H](O)CC(=O)O[C@H]1C)C[C@H](O)[C@H]2NC(=O)N1C[C@@](O)(C(=O)O)[C@@](O)(C(=O)O)C1` [I-298], the MIC was 0.5 µg/mL (≈ 0.45 µM) in test [1] (setting [5]), 1 µg/mL (≈ 0.899 µM) in test [2] (setting [6]) and 0.5 µg/mL (≈ 0.45 µM) in test [3] (setting [7]).

`C[C@@H]1[C@H](O)[C@@H](C)/C=C/C=C/C=C/C=C/C=C/C=C/C=C/[C@H](O[C@@H]2O[C@H](C)[C@@H](O)[C@H](NC(=O)CN(C)C)[C@@H]2O)C[C@@H]2O[C@](O)(C[C@@H](O)C[C@@H](O)[C@H](O)CC[C@@H](O)C[C@@H](O)CC(=O)O[C@H]1C)C[C@H](O)[C@H]2NC(N)=O` [I-325]: the MIC was 0.25 µg/mL (≈ 0.244 µM) in test [1] (setting [9]), 0.5 µg/mL (≈ 0.489 µM) in test [2] (setting [9]) and 1 µg/mL (≈ 0.977 µM) in test [3] (setting [9]).

As for `C[C@@H]1[C@H](O)[C@@H](C)/C=C/C=C/C=C/C=C/C=C/C=C/C=C/[C@H](O[C@@H]2O[C@H](C)[C@@H](O)[C@H](NC(=O)CN(C)C)[C@@H]2O)C[C@@H]2O[C@](O)(C[C@@H](O)C[C@@H](O)[C@H](O)CC[C@@H](O)C[C@@H](O)CC(=O)O[C@H]1C)C[C@H](O)[C@H]2NC(=O)NNC(N)=O` [I-326], the MIC in test [1] (setting [9]) is 0.25 µg/mL (≈ 0.231 µM); in test [2] (setting [9]) it was 1 µg/mL (≈ 0.925 µM); in test [3] (setting [9]) it was 1 µg/mL (≈ 0.925 µM).

As to `C[C@@H]1[C@H](O)[C@@H](C)/C=C/C=C/C=C/C=C/C=C/C=C/C=C/[C@H](O[C@@H]2O[C@H](C)[C@@H](O)[C@H](NC(=N)N)[C@@H]2O)C[C@@H]2O[C@](O)(C[C@@H](O)C[C@@H](O)[C@H](O)CC[C@@H](O)C[C@@H](O)CC(=O)O[C@H]1C)C[C@H](O)[C@H]2NC(=O)NNC(N)=O` [I-330], the MIC in test [1] (setting [9]) was 0.25 µg/mL (≈ 0.241 µM); in test [2] (setting [9]), 1 µg/mL (≈ 0.963 µM); in test [3] (setting [9]), 1 µg/mL (≈ 0.963 µM).

Regarding `CONC(=O)N[C@H]1[C@@H]2C[C@@H](O[C@@H]3O[C@H](C)[C@@H](O)[C@H](NC(=N)N)[C@@H]3O)/C=C/C=C/C=C/C=C/C=C/C=C/C=C/[C@H](C)[C@@H](O)[C@@H](C)[C@H](C)OC(=O)C[C@H](O)C[C@H](O)CC[C@@H](O)[C@H](O)C[C@H](O)C[C@](O)(C[C@@H]1O)O2` [I-331], the MIC stood at 0.25 µg/mL (≈ 0.247 µM) in test [1] (setting [9]), 1 µg/mL (≈ 0.99 µM) in test [2] (setting [9]) and 1 µg/mL (≈ 0.99 µM) in test [3] (setting [9]).

On to `C[C@@H]1[C@H](O)[C@@H](C)/C=C/C=C/C=C/C=C/C=C/C=C/C=C/[C@H](O[C@@H]2O[C@H](C)[C@@H](O)[C@H](NC(=N)N)[C@@H]2O)C[C@@H]2O[C@](O)(C[C@@H](O)C[C@@H](O)[C@H](O)CC[C@@H](O)C[C@@H](O)CC(=O)O[C@H]1C)C[C@H](O)[C@H]2NC(=O)NCCC(N)=O` [I-343], for which the MIC in test [1] (setting [9]) came out at 0.25 µg/mL (≈ 0.238 µM); in test [2] (setting [9]), 0.5 µg/mL (≈ 0.476 µM); in test [3] (setting [9]) it was 1 µg/mL (≈ 0.951 µM).

Regarding `C[C@@H]1[C@H](O)[C@@H](C)/C=C/C=C/C=C/C=C/C=C/C=C/C=C/[C@H](O[C@@H]2O[C@H](C)[C@@H](O)[C@H](NC(=O)CN(C)C)[C@@H]2O)C[C@@H]2O[C@](O)(C[C@@H](O)C[C@@H](O)[C@H](O)CC[C@@H](O)C[C@@H](O)CC(=O)O[C@H]1C)C[C@H](O)[C@H]2NC(=O)NCCC(N)=O` [I-344], the MIC in test [1] (setting [9]) stood at 0.5 µg/mL (≈ 0.457 µM); in test [2] (setting [9]) it was 0.5 µg/mL (≈ 0.457 µM); in test [3] (setting [9]) it was 1 µg/mL (≈ 0.914 µM).

As to `C[C@@H]1[C@H](O)[C@@H](C)/C=C/C=C/C=C/C=C/C=C/C=C/C=C/[C@H](O[C@@H]2O[C@H](C)[C@@H](O)[C@H](NC(=N)N)[C@@H]2O)C[C@@H]2O[C@](O)(C[C@@H](O)C[C@@H](O)[C@H](O)CC[C@@H](O)C[C@@H](O)CC(=O)O[C@H]1C)C[C@H](O)[C@H]2NC(=O)NCC(N)=O` [I-346], the MIC came to 0.5 µg/mL (≈ 0.482 µM) in test [1] (setting [9]), 0.5 µg/mL (≈ 0.482 µM) in test [2] (setting [9]) and 1 µg/mL (≈ 0.964 µM) in test [3] (setting [9]).

Regarding `C[C@@H]1[C@H](O)[C@@H](C)/C=C/C=C/C=C/C=C/C=C/C=C/C=C/[C@H](O[C@@H]2O[C@H](C)[C@@H](O)[C@H](NC(=N)N)[C@@H]2O)C[C@@H]2O[C@](O)(C[C@@H](O)C[C@@H](O)[C@H](O)CC[C@@H](O)C[C@@H](O)CC(=O)O[C@H]1C)C[C@H](O)[C@H]2NC(=O)NNC(=O)[C@H](O)CO` [I-367], the MIC in test [1] (Candida albicans, lowest concentration giving 100% inhibition, read-out: MIC) is 0.25 µg/mL (≈ 0.231 µM); in test [2] (Aspergillus flavus, lowest concentration giving 100% inhibition, read-out: MIC) it was 0.5 µg/mL (≈ 0.462 µM); in test [3] (Aspergillus fumigatus, lowest concentration giving 100% inhibition, read-out: MIC), 1 µg/mL (≈ 0.923 µM).

As for `C[C@@H]1[C@H](O)[C@@H](C)/C=C/C=C/C=C/C=C/C=C/C=C/C=C/[C@H](O[C@@H]2O[C@H](C)[C@@H](O)[C@H](NC(=N)NO)[C@@H]2O)C[C@@H]2O[C@](O)(C[C@@H](O)C[C@@H](O)[C@H](O)CC[C@@H](O)C[C@@H](O)CC(=O)O[C@H]1C)C[C@H](O)[C@H]2NC(=O)NNC(=O)[C@H](O)CO` [I-380], the MIC came to 0.5 µg/mL (≈ 0.455 µM) in test [1] (setting [9]), 0.5 µg/mL (≈ 0.455 µM) in test [2] (setting [9]) and 1 µg/mL (≈ 0.91 µM) in test [3] (setting [9]).

On to `CNC(=O)N[C@H]1[C@@H]2C[C@@H](O[C@@H]3O[C@H](C)[C@@H](O)[C@H](N(CCCN)CCCN)[C@@H]3O)/C=C/C=C/C=C/C=C/C=C/C=C/C=C/[C@H](C)[C@@H](O)[C@@H](C)[C@H](C)OC(=O)C[C@H](O)C[C@H](O)CC[C@@H](O)[C@H](O)C[C@H](O)C[C@](O)(C[C@@H]1O)O2` [I-383], for which the MIC in test [1] (setting [9]) stood at 0.25 µg/mL (≈ 0.234 µM); in test [2] (setting [9]) it was 1 µg/mL (≈ 0.938 µM); in test [3] (setting [9]), 1 µg/mL (≈ 0.938 µM).

For the origin of these results see patent US10696707B2, “Polyene macrolide derivative” (Shionogi & Co., Ltd., priority 2014, dated 2020).
